# Reference: patent US20250145594A1, “MODULATORS OF THE INTEGRATED STRESS PATHWAY” (Calico Life Sciences LLC, priority 2020, published 2025)
# System: ATF4 luciferase reporter in HEK293T cells
# Test: ATF4-Luc assay (in vitro model of VWMD)
# Format: cell-based, human
# Settings: Homo sapiens, HEK-293T, 7 h, HEK293T cells carrying the ATF4 luciferase reporter, 1 μg/mL tunicamycin, One Glo luminescence
# Procedure, shortened: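 Stable HEK293T line expressing firefly luciferase behind the human ATF4 5′-UTR, treated with 1 μg/mL tunicamycin plus compound for 7 hours. Luminescence read with One Glo; EC50 determined.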
row,SMILES,EC50
1,"O=C(NC12CC(c3cc(OCCCOC(F)(F)F)ncn3)(C1)C2)[C@H]1C[C@@H](O)c2cc(Cl)c(F)cc2O1 [Compound 649, (2R,4R)-6-chloro-7-fluoro-4-hydroxy-N-(3-{6-[3-(trifluoromethoxy)propoxy]pyrimidin-4-yl}bicyclo[1.1.1]pentan-1-yl)-3,4-dihydro-2H-1-benzopyran-2-carboxamide]",< 10 nM
2,"O=C(NC12CC(n3cnc(-c4ccc(Cl)c(F)c4F)c3)(C1)C2)[C@H]1C[C@@H](O)c2cc(Cl)ccc2O1 [Compound 394, (2R,4R)-6-chloro-N-{3-[4-(4-chloro-2,3-difluorophenyl)-1H-imidazol-1-yl]bicyclo[1.1.1]pentan-1-yl}-4-hydroxy-3,4-dihydro-2H-1-benzopyran-2-carboxamide]",< 10 nM
3,"O=C(NC12CC(c3ccc(C(=O)N4CC(OCC(F)(F)F)C4)nc3)(C1)C2)[C@H]1C[C@@H](O)c2cc(Cl)ccc2O1 [Compound 533, (2R,4R)-6-chloro-4-hydroxy-N-(3-{6-[3-(2,2,2-trifluoroethoxy)azetidine-1-carbonyl]pyridin-3-yl}bicyclo[1.1.1]pentan-1-yl)-3,4-dihydro-2H-1-benzopyran-2-carboxamide]",< 10 nM
4,"O=C(NC12CC(n3cc([C@H]4C[C@@H](OC(F)F)C4)nn3)(C1)C2)[C@H]1C[C@@H](O)c2cc(Cl)ccc2O1 [Compound 544, (2R,4R)-6-chloro-N-(3-{4-[(1s,3S)-3-(difluoromethoxy)cyclobutyl]-1H-1,2,3-triazol-1-yl}bicyclo[1.1.1]pentan-1-yl)-4-hydroxy-3,4-dihydro-2H-1-benzopyran-2-carboxamide]",< 10 nM
5,"O=C(COc1ccc(Cl)c(F)c1)N[C@H]1CC[C@H](n2cc(OCCOC(F)(F)F)cn2)CC1 [Compound 457, 2-(4-chloro-3-fluorophenoxy)-N-[(1r,4r)-4-{4-[2-(trifluoromethoxy)ethoxy]-1H-pyrazol-1-yl}cyclohexyl]acetamide]",< 10 nM
6,"O=C(NC12CC(n3cc(C(=O)N4CCC(F)(F)C4)cn3)(C1)C2)[C@H]1C[C@@H](O)c2cc(Cl)ccc2O1 [Compound 384, (2R,4R)-6-chloro-N-{3-[4-(3,3-difluoropyrrolidine-1-carbonyl)-1H-pyrazol-1-yl]bicyclo[1.1.1]pentan-1-yl}-4-hydroxy-3,4-dihydro-2H-1-benzopyran-2-carboxamide]",250 to 500 nM
7,"O=C(NC12CCC(n3cc(C(=O)N4CC[C@H](OC(F)(F)F)C4)cn3)(CC1)CC2)[C@H]1C[C@@H](O)c2cc(Cl)ccc2O1 [Compound 331, (2R,4R)-6-chloro-4-hydroxy-N-(4-{4-[(3S)-3-(trifluoromethoxy)pyrrolidine-1-carbonyl]-1H-pyrazol-1-yl}bicyclo[2.2.2]octan-1-yl)-3,4-dihydro-2H-1-benzopyran-2-carboxamide]",< 10 nM
8,"O=C(NC12CC(c3ccc(OCCOC(F)(F)F)nc3)(C1)C2)[C@H]1C[C@@H](O)c2cc(Cl)c(F)cc2O1 [Compound 446, (2R,4R)-6-chloro-7-fluoro-4-hydroxy-N-(3-{6-[2-(trifluoromethoxy)ethoxy]pyridin-3-yl}bicyclo[1.1.1]pentan-1-yl)-3,4-dihydro-2H-1-benzopyran-2-carboxamide]",10 to 50 nM
9,"O=C(NC12CC(c3cn([C@H]4C[C@@H](OC(F)(F)F)C4)nn3)(C1)C2)[C@H]1C[C@@H](O)c2cc(Cl)ccc2O1 [Compound 315, (2R,4R)-6-chloro-4-hydroxy-N-(3-{1-[cis-3-(trifluoromethoxy)cyclobutyl]-1H-1,2,3-triazol-4-yl}bicyclo[1.1.1]pentan-1-yl)-3,4-dihydro-2H-1-benzopyran-2-carboxamide]",10 to 50 nM
10,"O=C(CO[C@H]1C[C@@H](OC(F)(F)F)C1)N[C@@H]1C[C@@H]2C[C@H]1C[C@H]2NC(=O)[C@@H]1C[C@@H](O)c2cc(Cl)ccc2O1 [Compound 393, (2S,4R)-6-chloro-4-hydroxy-N-[(1S,2R,4S,5R)-5-(2-{[cis-3-(trifluoromethoxy)cyclobutyl]oxy}acetamido)bicyclo[2.2.1]heptan-2-yl]-3,4-dihydro-2H-1-benzopyran-2-carboxamide]",50 to 250 nM
11,"CCOc1ccc2nn(C34CC(NC(=O)COc5ccc(Cl)c(Cl)c5)(C3)C4)cc2c1 [Compound 623, 2-(3,4-dichlorophenoxy)-N-[3-(5-ethoxy-2H-indazol-2-yl)bicyclo[1.1.1]pentan-1-yl]acetamide]",< 10 nM
12,"O=C(CO[C@H]1C[C@@H](OC(F)(F)F)C1)NC12CCC(NC(=O)[C@@H]3C[C@@H](O)c4cc(Cl)ccc4O3)(CC1)C[C@@H]2O (single isomer, unassigned) [Compound 279]",< 10 nM
13,"O=C(NC12CC(n3cc(-c4ccc(OC(F)(F)F)cn4)cn3)(C1)C2)[C@H]1C[C@@H](O)c2cc(Cl)ccc2O1 [Compound 308, (2R,4R)-6-chloro-4-hydroxy-N-(3-{4-[5-(trifluoromethoxy)pyridin-2-yl]-1H-pyrazol-1-yl}bicyclo[1.1.1]pentan-1-yl)-3,4-dihydro-2H-1-benzopyran-2-carboxamide]",< 10 nM
14,"O=C(NC12CC(n3cc(OCCOC(F)(F)F)cn3)(C1)C2)C1CNc2cc(C(F)(F)F)c(F)cc2O1 (stereo not shown) [Compound 592, 7-fluoro-N-(3-{4-[2-(trifluoromethoxy)ethoxy]-1H-pyrazol-1-yl}bicyclo[1.1.1]pentan-1-yl)-6-(trifluoromethyl)-3,4-dihydro-2H-1,4-benzoxazine-2-carboxamide]",10 to 50 nM
15,"O=C(NC12CC(n3cc(OCCOC(F)(F)F)cn3)(C1)C2)[C@H]1C[C@@H](O)c2cc(Cl)c(Cl)cc2O1 [Compound 442, (2R,4R)-6,7-dichloro-4-hydroxy-N-(3-{4-[2-(trifluoromethoxy)ethoxy]-1H-pyrazol-1-yl}bicyclo[1.1.1]pentan-1-yl)-3,4-dihydro-2H-1-benzopyran-2-carboxamide]",< 10 nM
16,"O=C(NC12CC(n3cc(-c4ccc(OC(F)(F)F)nc4)cn3)(C1)C2)[C@H]1C[C@@H](O)c2cc(Cl)ccc2O1 [Compound 350, (2R,4R)-6-chloro-4-hydroxy-N-(3-{4-[6-(trifluoromethoxy)pyridin-3-yl]-1H-pyrazol-1-yl}bicyclo[1.1.1]pentan-1-yl)-3,4-dihydro-2H-1-benzopyran-2-carboxamide]",< 10 nM
17,"COc1cc2cn(C34CC(NC(=O)[C@H]5C[C@@H](O)c6cc(Cl)c(Cl)cc6O5)(C3)C4)nc2cn1 [Compound 503, (2R,4R)-6,7-dichloro-4-hydroxy-N-[3-(5-methoxy-2H-pyrazolo[3,4-c]pyridin-2-yl)bicyclo[1.1.1]pentan-1-yl]-3,4-dihydro-2H-1-benzopyran-2-carboxamide]",< 10 nM
18,"O=C(NC12CC(c3ccc(C(=O)N4CC(OC(F)(F)F)C4)nc3)(C1)C2)[C@H]1C[C@@H](O)c2cc(Cl)ccc2O1 [Compound 536, (2R,4R)-6-chloro-4-hydroxy-N-(3-{6-[3-(trifluoromethoxy)azetidine-1-carbonyl]pyridin-3-yl}bicyclo[1.1.1]pentan-1-yl)-3,4-dihydro-2H-1-benzopyran-2-carboxamide]",< 10 nM
19,"O=C(NC12CC(n3cc(OC[C@H]4C[C@H](OC(F)(F)F)C4)cn3)(C1)C2)[C@H]1C[C@@H](O)c2cc(Cl)ccc2O1 [Compound 584, (2R,4R)-6-chloro-4-hydroxy-N-[3-(4-{[(1r,3R)-3-(trifluoromethoxy)cyclobutyl]methoxy}-1H-pyrazol-1-yl)bicyclo[1.1.1]pentan-1-yl]-3,4-dihydro-2H-1-benzopyran-2-carboxamide]",< 10 nM
20,"O=C(NC12CC(n3cc(-c4ccc(C(F)F)cn4)cn3)(C1)C2)[C@H]1C[C@@H](O)c2cc(Cl)c(F)cc2O1 [Compound 569, (2R,4R)-6-chloro-N-(3-{4-[5-(difluoromethyl)pyridin-2-yl]-1H-pyrazol-1-yl}bicyclo[1.1.1]pentan-1-yl)-7-fluoro-4-hydroxy-3,4-dihydro-2H-1-benzopyran-2-carboxamide]",< 10 nM
21,"O=C(NC12CC(n3cc([C@@H]4CC[C@@H](OC(F)(F)F)C4)nn3)(C1)C2)[C@H]1C[C@@H](O)c2cc(Cl)ccc2O1 (mixture of isomers) [Compound 538, (2R,4R)-6-chloro-4-hydroxy-N-(3-{4-[(1RS,3RS)-3-(trifluoromethoxy)cyclopentyl]-1H-1,2,3-triazol-1-yl}bicyclo[1.1.1]pentan-1-yl)-3,4-dihydro-2H-1-benzopyran-2-carboxamide]",< 10 nM
22,"O=C(COc1ccc(Cl)c(F)c1)NC12CC(c3ccc(C(=O)N4CCC(C(F)(F)F)C4)nc3)(C1)C2 (stereo not shown) [Compound 619, 2-(4-chloro-3-fluorophenoxy)-N-(3-{6-[3-(trifluoromethyl)pyrrolidine-1-carbonyl]pyridin-3-yl}bicyclo[1.1.1]pentan-1-yl)acetamide]",10 to 50 nM
23,"O=C(NC12CC(n3cc(-c4ccc(C(F)(F)F)cn4)cn3)(C1)C2)[C@H]1C[C@@H](O)c2cc(Cl)ccc2O1 [Compound 364, (2R,4R)-6-chloro-4-hydroxy-N-(3-{4-[5-(trifluoromethyl)pyridin-2-yl]-1H-pyrazol-1-yl}bicyclo[1.1.1]pentan-1-yl)-3,4-dihydro-2H-1-benzopyran-2-carboxamide]",< 10 nM
24,"CC1(C(F)(F)F)CCCN1C(=O)c1cnn(C23CC(NC(=O)[C@H]4C[C@@H](O)c5cc(Cl)ccc5O4)(C2)C3)c1 (stereo partly drawn) [Compound 328, (2R,4R)-6-chloro-4-hydroxy-N-(3-{4-[2-methyl-2-(trifluoromethyl)pyrrolidine-1-carbonyl]-1H-pyrazol-1-yl}bicyclo[1.1.1]pentan-1-yl)-3,4-dihydro-2H-1-benzopyran-2-carboxamide]",50 to 250 nM
25,"O=C(COc1ccc(Cl)c(F)c1)NC12CC(c3ccnc(OCCCOC(F)(F)F)c3)(C1)C2 [Compound 453, 2-(4-chloro-3-fluorophenoxy)-N-(3-{2-[3-(trifluoromethoxy)propoxy]pyridin-4-yl}bicyclo[1.1.1]pentan-1-yl)acetamide]",< 10 nM
